Experimental data: article PMC12510010 (The Journal of Biological Chemistry, 2025)

Legend:
Format in all cases: cell-based
[1] = tested on: MRP4 (cGMP in T-84 cells); assay: Ratiometric FRET of live cGMP production with sensor cygnet 2.1; details: STc (100 nm) + MK571 (10 μM), vs STc alone, t test p = 0.0481
Method: (§1) Figure 4 GCC and MRP4 are functionally coupled in the intestinal epithelial cells. A, dot-blot analysis of GST-NHERF1-4 binding with the C-terminal 50 amino acids of MRP4 (MRP4C50) that contains the C-terminal PDZ-domain binding motif ETALCOOH. GST was used as a negative control. 2 and 20 ng of purified MRP4C50 were also immobilized on the nitrocellulose membrane as positive controls for detection. The detection of the protein interaction was performed using S-protein HRP Conjugate. B, the macromolecular complex formation assay between MRP4C50 and GCCC50via NHERF3. […] D, bar-graph represents the amount of cGMP measured using ELISA from total cell lysate and the supernatant (medium) from T-84 cells treated with ± STc (1 μM, 30 min) ± MK571 (10 μM, 30 min). n represents each data point with n = 6 to 8 obtained from three independent experiments. […] E, bar-graph represents the quantitation of fluid secretion in the mouse enteroids treated with ± STc (1 μM, 30 min) ± MK571 (10 μM, 30 min). Fluid secretion in the mouse enteroids calculated from n = 8 to 25 organoids per condition. […] F, bar-graph represents the quantitation of fluid secretion in the human enteroids treated with ± STc (1 μM, 30 min) ± MK571 (10 μM, 30 min). Fluid secretion in the human enteroids calculated from n = 12 to 17 organoids per condition. […]

[2] = tested on: MRP4 (cGMP efflux, T-84 cells); assay: Extracellular cGMP (ELISA), T-84 cells; details: STc (1 μM, 30 min) + MK571 (10 μM, 30 min), n = 6 to 8, three independent experiments
Method: as §1

[3] = tested on: MRP4; fluid secretion in mouse enteroids; assay: STc-stimulated fluid secretion in mouse enteroids with MK571; details: STc (1 μM, 30 min), MK571 (10 μM, 30 min), n = 8 to 25 organoids
Method: as §1
(§2) Intestinal crypt isolation and quantitation of fluid secretion in enteroids […]

[4] = tested on: MRP4; fluid secretion in human enteroids; assay: STc-stimulated fluid secretion in human enteroids with MK571; details: STc (1 μM, 30 min), MK571 (10 μM, 30 min), n = 12 to 17 organoids
Method: as §1, §2

Question: What does the source list for `CN(C)C(=O)CCSC(SCCC(=O)O)c1cccc(/C=C/c2ccc3ccc(Cl)cc3n2)c1` (stereo not shown) [MK571]?
Answer: cGMP accumulation (ratiometric FRET) [1]: synergistic accumulation of cGMP; cGMP in the cell supernatant [2]: reduced cGMP concentrations (in the cell supernatant); STc-stimulated fluid secretion with MK571 [3]: enhanced STc-stimulated fluid secretion; STc-stimulated fluid secretion with MK571 [4]: enhanced STc-stimulated fluid secretion
